Data from patent US4877893A, “Process for the preparation of 2-(O-alkyl)-2-thio-1,3,2-oxathiophospholanes” (priority 1987, dated 1989).

Assays:
Test in all cases: Fungicidal effect on infected agar nutrient media, colony diameter
Type in all cases: cell-based
[1] = test system: Sclerotinia sclerotinia; settings: 3rd day after treatment, untreated control 41.7
Method: (§1) Agar nutrient media (Diameter 70 MM, thickness 10 mm) infected by Sclerotonia sclerotinia suspension are treated with 20 EC formulations prepared according to Example 27 and comprising 1, 10, 100 and 1000 ppm, respectively of the active ingredient of the Formula I. The fungicidal effect of the compositions is evaluated on the 3rd day after treatment by measuring the diameter of the Fungi colonies.

[2] = test system: Penicillium cyclopium; settings: 7th day after treatment, untreated 26.5
Method: as §1
The series of measureents described in Example 35 is carried out except that the agar nutrient media are infected by a Penicillium cyclopium Fungi strain and the test is evaluated on the 7th day after treatment.

[3] = test system: Alternaria tenuis; settings: 5th day after treatment, untreated control 36.8
Method: as §1
The series of measurements according to Example 35 is carried out except that the agar nutrient media are infected by Alternaria Tenius and evaluation is accomplished on the 5th day after treatment.

Compound | Diameter of colony (mm) ([1]; 1 ppm) | Diameter of colony (mm) ([1]; 10 ppm) | Diameter of colony (mm) ([1]; 100 ppm) | Diameter of colony (mm) ([1]; 1000 ppm) | Diameter of colony (mm) ([2]; 1 ppm) | Diameter of colony (mm) ([2]; 10 ppm) | Diameter of colony (mm) ([2]; 100 ppm) | Diameter of colony (mm) ([2]; 1000 ppm) | Diameter of colony (mm) ([3]; 1 ppm) | Diameter of colony (mm) ([3]; 10 ppm) | Diameter of colony (mm) ([3]; 100 ppm) | Diameter of colony (mm) ([3]; 1000 ppm)
S=P1(OCCS)OCCS1 (stereo not drawn) [Compound 56] | 40.2 | 31.5 | 1.2 | 0 | 24.6 | 18.1 | 8.8 | 0 | 32.8 | 22.1 | 6.0 | 0
CC(I)COP1(=S)OCC(C)S1 (stereo not drawn) [Compound 27] | 41.2 | 28.6 | 1.4 | 0 | 23.8 | 17.5 | 4.6 | 0 | 33.5 | 22.4 | 8.8 | 0
CCCCOP1(=S)OCC(C)S1 (stereo not drawn) [Compound 61, 2-(0-n-butyl)-2-thio-4-methyl-1,3,2-oxathiophospholane] | 35.6 | 28.9 | 2.7 | 0 | 24.0 | 19.0 | 8.3 | 0 | 36.2 | 24.3 | 6.2 | 0
CC(I)COP1(=S)OCCS1 (stereo not drawn) [Compound 15] | 34.3 | 30.3 | 1.4 | 0 | 19.1 | 15.5 | 5.8 | 0 | 35.9 | 21.1 | 5.5 | 0
S=P1(OCCI)OCCS1 (stereo not drawn) [Compound 3, 2-(O-2'-iodoethyl)-2-thio1,3,2-oxathiophospholane] | 37.4 | 30.0 | 2.1 | 0 | 25.0 | 18.6 | 7.1 | 0 | 34.6 | 22.4 | 6.8 | 0
CCCOP1(=S)OCCS1 (stereo not drawn) [Compound 46, 2-(0-n-propyl)-2-thio-1,3,2-oxathiophospholane] | 34.6 | 28.7 | 4.2 | 0 | 25.1 | 18.9 | 7.9 | 0 | 34.2 | 24.3 | 5.8 | 0
CC1CSP(=S)(OC(C)C(C)Br)O1 (stereo not drawn) [Compound 38] | 37.8 | 31.3 | 0 | 0 | 24.3 | 18.6 | 7.4 | 0 | 30.2 | 24.5 | 6.9 | 0
CC(Br)COP1(=S)OCCS1 (stereo not drawn) [Compound 14] | 38.1 | 28.1 | 0 | 0 | 18.2 | 17.6 | 7.9 | 0 | 31.3 | 21.3 | 5.7 | 0
CC(Cl)COP1(=S)OCC(C)S1 (stereo not drawn) [Compound 25] | 38.8 | 30.3 | 1.0 | 0 | 26.0 | 19.8 | 7.8 | 0 | 33.8 | 24.0 | 6.5 | 0
CC1COP(=S)(OC(C)C(C)Cl)S1 (stereo not drawn) [Compound 31] | 37.4 | 29.2 | 4.0 | 0 | 23.6 | 14.9 | 9.0 | 0 | 36.0 | 23.6 | 8.1 | 0
CC(Br)COP1(=S)OC(C)C(C)S1 (stereo not drawn) [Compound 41] | 37.6 | 30.0 | 2.6 | 0 | 24.1 | 16.4 | 4.9 | 0 | 33.8 | 25.1 | 7.3 | 0
CCC(C)OP1(=S)OCCS1 (stereo not drawn) [Compound 49] | 37.2 | 30.4 | 4.0 | 0 | 26.3 | 20.3 | 7.5 | 0 | 34.3 | 25.9 | 7.0 | 0
CC(Br)COP1(=S)OCC(C)S1 (stereo not drawn) [Compound 26] | 40.9 | 32.1 | 1.6 | 0 | 20.5 | 18.8 | 8.5 | 0 | 34.2 | 21.1 | 6.2 | 0
CCCOP1(=S)OC(C)CS1 (stereo not drawn) [Compound 47, 2-(0-n-propyl)-2-thio-5-methyl-1,3,2-oxathiophospholane] | 33.9 | 30.2 | 3.9 | 0 | 23.8 | 20.1 | 8.3 | 0 | 33.5 | 25.7 | 7.0 | 0
CC1COP(=S)(OC(C)C(C)I)S1 (stereo not drawn) [Compound 33] | 33.2 | 26.4 | 0 | 0 | 22.3 | 20.7 | 6.1 | 0 | 33.0 | 21.3 | 6.3 | 0
CC(CBr)OP1(=S)OC(C)CS1 (stereo not drawn) [Compound 20] | 34.9 | 28.2 | 1.6 | 0 | 20.1 | 17.7 | 4.1 | 0 | 33.2 | 25.0 | 5.0 | 0
CC1COP(=S)(OCCI)S1 (stereo not drawn) [Compound 9, 2-(0-2'-iodoethyl)-2-thio-4-methyl-1,3,2-oxathiophospholane] | 39.2 | 27.6 | 3.9 | 0 | 23.2 | 15.8 | 5.7 | 0 | 30.6 | 24.6 | 8.9 | 0
